# Laboratory results published in patent publication US20060293320A1, “Heteroaryl derivatives for treating viruses” (Genelabs Technologies, Inc., priority 2005, published 2006).
# Test system: HCV replicon I389luc-ubi-neo/NS3-3′/ET in ET (Huh-lucubineo-ET) cell line
# Test: Replicon assay (luciferase reporter)
# Assay type: cell-based
# Conditions: Hepatitis C virus; tested at 33 μM; ET (Huh-lucubineo-ET) replicon cells, luciferase activity, relative to no compound control; read-out: % inhibition of replication
# Experimental: A cell line, ET (Huh-lucubineo-ET) was used for screening of compounds of the present invention for HCV RNA dependent RNA polymerase. The ET cell line was stably transfected with RNA transcripts harboring a I389luc-ubi-neo/NS3-3′/ET; replicon with firefly luciferase-ubiquitin-neomycin phosphotransferase fusion protein and EMCV-IRES driven NS3-5B polyprotein containing the cell culture adaptive mutations (E1202G; T1280I; K1846T) (Krieger at al, 2001 and unpublished). The ET cells were grown in DMEM, supplemented with 10% fetal calf serum, 2 mM Glutamine, Penicillin (100 IU/mL)/Streptomycin (100 μg/mL), 1× nonessential amino acids, and 250 μg/mL G418 (“Geneticin”). They were all available through Life Technologies (Bethesda, Md.). The cells were plated at 0.5-1.0×10^4 cells/well in the 96 well plates and incubated for 24 hrs before adding nucleoside analogs. Then the compounds were added to the cells to achieve a final concentration of 5 or 50 μM. Luciferase activity was measured 48-72 hours later by adding a lysis buffer and the substrate (Catalog number Glo-lysis buffer E2661 and Bright-Glo leuciferase system E2620 Promega, Madison, Wis.). Cells should not be too confluent during the assay. Percent inhibition of replication was plotted relative to no compound control. Under the same condition, cytotoxicity of the compounds was determined using cell proliferation reagent, WST-1 (Roche, Germany). The compounds showing potent antiviral activities, but no significant cytotoxicities were chosen for further evaluation. For these determinations, a 10-point, 2-fold serial dilution for each compound was used which spans a concentration range of 1000 fold. IC50 and TC50 values were calculated by fitting % inhibition at each concentration to the following equation: % inhibition=100%/[(IC50/[I])^b+1] where b is Hill's coefficient.
# The % inhibition at a particular concentration was determined using the following equation: % Inhibition=100−[100*(Lum with inhibitor-bg)/(Lum with no inhibitor-bg)] where bg was the background with no replicon cell, and Lum was the luminescence intensity of the reporter luciferase gene.
row,Compound,inhibition at 33 µM
1,"Cc1nc(C)c(-c2ccc3cc(-c4c(C5CCCCC5)cc(C(=O)O)n4CC(=O)O)ccc3n2)s1 [Compound 30, 1-(carboxymethyl)-4-cyclohexyl-5-(2-(2,4-dimethylthiazol-5-yl)quinolin-6-yl)-1H-pyrrole-2-carboxylic acid]",22%
2,"Cc1nc(C)c(-c2ccc3cc(-c4c(C5CCCCC5)cc(C(=O)O)n4CC(=O)OC(C)(C)C)ccc3n2)s1 [Compound 31, 1-((tert-butoxycarbonyl)methyl)-4-cyclohexyl-5-(2-(2,4-dimethylthiazol-5-yl)quinolin-6-yl)-1H-pyrrole-2-carboxylic acid]",48%
3,"Cc1nc(C)c(-c2ccc3cc(-c4c(C5CCCCC5)cc(C(=O)O)n4CC(=O)N4CCOCC4)ccc3n2)s1 [Compound 32, 4-cyclohexyl-5-(2-(2,4-dimethylthiazol-5-yl)quinolin-6-yl)-1-(2-morpholino-2-oxoethyl)-1H-pyrrole-2-carboxylic acid]",57%
4,"Cc1nc(C)c(-c2ccc3cc(-c4c(C5CCCCC5)cc(C(=O)NCC(=O)O)n4CC(=O)N4CCOCC4)ccc3n2)s1 [Compound 33, 2-(4-cyclohexyl-5-(2-(2,4-dimethylthiazol-5-yl)quinolin-6-yl)-1-(2-morpholino-2-oxoethyl)-1H-pyrrole-2-carboxamido)acetic acid]",17%
